In patent US8633231B2, “Substituted imidazolones, compositions containing such compounds and methods of use” (Merck Sharp & Dohme Corp., priority 2010, dated 2014):

Biological target: Recombinant human glucagon receptor-expressing CHO cells (Homo sapiens (Human), UniProt P47871)
Assay: Inhibition of Glucagon-Stimulated Intracellular cAMP Assay
Type: cell-based
Conditions: stimulation with 300 pM glucagon; LANCE cAMP Kit
Procedure: Inhibition of Glucagon-Stimulated Intracellular cAMP Assay
Recombinant human glucagon receptor-expressing CHO cells were harvested using a non-enzymatic cell dissociation solution (GIBCO 2672), pelleted and resuspended in stimulation buffer (1×HBSS, 5 mM Hepes, 0.1% BSA, pH7.4 in the presence of proteinase inhibitor and phosphodiesterase inhibitors). The adenylate cyclase assay was constructed following the LANCE cAMP Kit (Perkin Elmer, AD0264) instructions. Briefly, cells were preincubated with anti-cAMP antibody and 12 points series diluted compound in stimulation buffer with a final concentration of 3% DMSO for 30 minutes prior to stimulation with 300 pM glucagon for 45 minutes. The reaction was stopped by incubating with the supplied detection buffer containing Europium chelate of the Eu-SA/Biotin-cAMP tracer for 20 hours. The assay was done as triplicates in a 384 well plate. Fluorescence at 665 nm was measured using PheraStar instruments. Basal activity (100% inhibition) was determined using the DMSO control and 0% inhibition was defined as cAMP stimulation produced by 300 pM glucagon. Standard cAMP concentrations were assayed concurrently for conversion of fluorescence signal to cAMP level. Data was analyzed using the software program Prism from GraphPad. IC50 values were calculated using non-linear regression analysis assuming single site competition.

Sequence of Recombinant human glucagon receptor-expressing CHO cells (P47871 26-477): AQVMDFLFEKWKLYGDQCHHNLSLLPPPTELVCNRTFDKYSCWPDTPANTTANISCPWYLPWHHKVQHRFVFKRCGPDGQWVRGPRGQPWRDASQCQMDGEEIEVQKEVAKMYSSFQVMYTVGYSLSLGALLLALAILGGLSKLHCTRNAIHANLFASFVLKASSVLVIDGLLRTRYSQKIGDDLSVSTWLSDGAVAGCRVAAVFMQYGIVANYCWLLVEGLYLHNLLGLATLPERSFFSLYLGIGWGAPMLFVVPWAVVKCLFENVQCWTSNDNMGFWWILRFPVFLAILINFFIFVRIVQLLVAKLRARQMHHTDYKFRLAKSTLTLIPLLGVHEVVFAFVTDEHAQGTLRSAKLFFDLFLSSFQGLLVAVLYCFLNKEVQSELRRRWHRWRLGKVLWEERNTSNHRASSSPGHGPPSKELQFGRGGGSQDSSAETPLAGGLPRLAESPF

Row | IC50 | SMILES
1 | 0.8 µM | CC(C)(C)CC[C@H](c1ccc(C(=O)NCCC(=O)O)cc1)N1C(=O)C(c2cc(Cl)cc(Cl)c2)=NC1(C)C [Example 1]
2 | 3.7 µM | CC(C)(C)CC[C@H](c1ccc(C(=O)NCc2nn[nH]n2)cc1)N1C(=O)C(c2cc(Cl)cc(Cl)c2)=NC1(C)C [Example 2]
3 | 6.2 µM | CC(C)(C)CC[C@H](c1ccc(C(=O)Nc2nn[nH]n2)cc1)N1C(=O)C(c2cc(Cl)cc(Cl)c2)=NC1(C)C [Example 3]
4 | 1.1 µM | CC(C)CC1(C)N=C(c2cc(Cl)cc(Cl)c2)C(=O)N1[C@H](CCC(C)(C)C)c1ccc(C(=O)NCc2nn[nH]n2)cc1 (some centres unmarked) [Example 4]
5 | 5.1 µM | CC(C)CC1(C)N=C(c2cc(Cl)cc(Cl)c2)C(=O)N1[C@H](CCC(C)(C)C)c1ccc(C(=O)Nc2nn[nH]n2)cc1 (some centres unmarked) [Example 5]
6 | 3.4 µM | CC(C)CC1(C)N=C(c2cccc(F)c2)C(=O)N1[C@H](CCC(C)(C)C)c1ccc(C(=O)NCc2nn[nH]n2)cc1 (some centres unmarked) [Example 6]
7 | 0.6 µM | CC(C)CC1(C)N=C(c2cc(Cl)cc(Cl)c2)C(=O)N1[C@H](CCC(C)(C)C)c1ccc(C(=O)NCCC(=O)O)cc1 (some centres unmarked) [Example 7]
8 | 4.9 µM | CC(C)(C)CC[C@H](c1ccc(C(=O)NCCC(=O)O)cc1)N1C(=O)C(c2cccc(F)c2)=NC1(C)C [Example 8]
9 | 5.9 µM | CC(C)(C)CC[C@H](c1ccc(C(=O)Nc2nn[nH]n2)cc1)N1C(=O)C(c2cccc(F)c2)=NC1(C)C [Example 9]
10 | 8.4 µM | CC(C)(C)CC[C@H](c1ccc(C(=O)NCc2nn[nH]n2)cc1)N1C(=O)C(c2cccc(F)c2)=NC1(C)C [Example 10]
11 | 1.7 µM | CC1(C2CCCCC2)N=C(c2cc(Cl)cc(Cl)c2)C(=O)N1CCc1ccc(C(=O)NCCC(=O)O)cc1 (centres unmarked) [Example 11]
12 | 1.7 µM | CC1(C)N=C(c2cc(Cl)cc(Cl)c2)C(=O)N1CCc1ccc(C(=O)NCCC(=O)O)cc1 [Example 12]
13 | 4.2 µM | CC(C)CC1(C)N=C(c2cc(Cl)cc(Cl)c2)C(=O)N1CCc1ccc(C(=O)NCCC(=O)O)cc1 (centres unmarked) [Example 13]
14 | 5.1 µM | CC1(C2CCCCC2)N=C(c2ccc(OC(F)(F)F)cc2)C(=O)N1CCc1ccc(C(=O)NCCC(=O)O)cc1 (centres unmarked) [Example 14]
15 | 3.5 µM | CC1(C2CCCCC2)NC(c2cccc(C(F)(F)F)c2)C(=O)N1CCc1ccc(C(=O)NCCC(=O)O)cc1 (centres unmarked) [Example 15]
16 | 8.3 µM | CC1(C)N=C(c2ccc(OC(F)(F)F)cc2)C(=O)N1CCc1ccc(C(=O)NCCC(=O)O)cc1 [Example 16]
17 | 1.7 µM | CC1(C)N=C(c2cc(Cl)cc(Cl)c2)C(=O)N1[C@@H](c1ccc(C(=O)NCCC(=O)O)cc1)C1CC1 [Example 17]
18 | 1 µM | CCCC[C@H](c1ccc(C(=O)NCCC(=O)O)cc1)N1C(=O)C(c2ccc(-c3cc(Cl)cc(Cl)c3)cc2)=NC1(C)C [Example 18]
19 | 1.3 µM | CC(C)[C@H](c1ccc(C(=O)NCCC(=O)O)cc1)N1C(=O)C(c2cc(Cl)cc(Cl)c2)=NC1(C)C [Example 19]
20 | 2 µM | CCCC[C@H](c1ccc(C(=O)NCCC(=O)O)cc1)N1C(=O)C(c2cc(Cl)cc(Cl)c2)=NC1(C)C [Example 20]
